Measured values: publication PMC12290960, “Eremanthus erythropappus as a Source of Antiparasitic Agents: In Vitro and In Vivo Efficacy against Schistosoma mansoni” (ACS Omega, 2025)

What was measured:
S. mansoni adult worms = assay: In vitro antischistosomal assay on adult worms (mortality/viability by motility); format: cell-based, Schistosoma mansoni; details: for EC50: Schistosoma mansoni, mortality of S. mansoni adult worms, 95% CI in square brackets; for in vitro antischistosomal activity (in words): concentrations of up to 50 μM
[1] = tested on: S. mansoni (49 day old adult infection); assay: In vivo antischistosomal assay in S. mansoni-infected mice (worm burden, oogram, fecal egg count); parameters: species or system Schistosoma mansoni; details: for worm burden reduction (WBR): single dose 400 mg/kg p.o., treated 49 days postinfection, vs vehicle control
Experimental: The Belo Horizonte strain of Schistosoma mansoni was maintained in its life cycle using Biomphalaria glabrata snails (intermediate hosts) and female Swiss mice (final hosts). Three week old female Swiss mice (∼20 g) were obtained from […] para Laboratório (São Paulo, Brazil). Infected snails and mice were housed under controlled conditions (25 °C, 50% humidity, and 12 h light/dark cycles) with ad libitum access to food and water. Mice were percutaneously infected with 80 S. mansoni cercariae and treated 49 days postinfection (adult worm stage). […] At 63 days postinfection, mice were euthanized (CO2), and worms were recovered by mesenteric perfusion. Worm burden reduction was calculated after sexing, , and fecal egg counts were performed as previously described. , The study complied with ARRIVE guidelines, including randomization to minimize bias.

in vitro = details: African green monkey
Vero cells = assay: Cytotoxicity in mammalian cells (MTT assay); details: CC50 on Vero cells divided by EC50 on schistosomes

Compound | EC50 (S. mansoni adult worms) | in vitro antischistosomal activity (in words) (S. mansoni adult worms) | reduction in immature egg deposition (oogram, EBR immature) ([1]; 400 mg/kg p.o., 49 day old adult infection) | reduction in number of eggs per gram of feces (egg load, EBR) ([1]; 400 mg/kg p.o., 49 day old adult infection, vs control) | worm burden reduction (WBR) [1] | CC50 at 72 h (in vitro) | SI (selectivity index) (Vero cells) | CC50 (in vitro)
COc1ccc(-c2cc(=O)c3c(O)cc(O)cc3o2)cc1 [acacetin (14), 5,7-dihydroxy-4′-methoxyflavone] | > 50 µM | inactive | – | – | – | – | – | –
O=C(C1CCCCC1)N1CC(=O)N2CCc3ccccc3C2C1 (stereo not shown) [praziquantel] | 0.8 µM | – | 96.8% | 93.9% | 92.6% | > 500 µM | >625 | –
C=C(C)[C@@H]1CC[C@]2(C(=O)O)CC[C@]3(C)[C@H](CC[C@@H]4[C@@]5(C)CC[C@H](O)C(C)(C)[C@@H]5CC[C@]43C)[C@@H]12 [betulinic acid (8), 3β-hydroxy-20(29)-lupaene-28-oic acid] | 36.8 µM | – | – | – | 41.9% | – | – | > 500 µM
C[C@H]1C(=O)CC[C@@H]2[C@]1(C)CC[C@H]1[C@@]2(C)CC[C@@]2(C)[C@@H]3CC(C)(C)CC[C@]3(C)CC[C@]12C [friedelin (7), friedelan-3-one] | > 50 µM | inactive | – | – | – | – | – | –
